{"source": "ChEMBL document CHEMBL3885881", "about": "“DrugMatrix”", "species_on_record": "Rattus norvegicus", "assay": "DrugMatrix - Regimen: Daily Repeat", "assay_type": "toxicity, organism-based, Sprague-Dawley", "set-up": "regimen Daily Repeat, gender Male, age 6-8 weeks", "details": "in vivo, po, 2500 mg/kg, route oral GAVAGE, dose level High, vehicle .5 % CMC; for ABSOLUTE BASOPHIL / ABSOLUTE EOSINOPHIL / ABSOLUTE LYMPHOCYTE / ABSOLUTE MONOCYTE / ABSOLUTE SEGMENTED NEUTROPHIL / BASOPHIL / EOSINOPHIL / ERYTHROCYTE COUNT / HEMATOCRIT / HEMOGLOBIN / LEUKOCYTE COUNT / LYMPHOCYTE / MEAN CORPUSCULAR HEMOGLOBIN / MEAN CORPUSCULAR HEMOGLOBIN CONCENTRATION / MEAN CORPUSCULAR VOLUME / MONOCYTE / NEUTROPHIL / NUCLEATED RED BLOOD CELLS / PLATELET COUNT: tissue Blood; for ALANINE AMINOTRANSFERASE / ALBUMIN / ASPARTATE AMINOTRANSFERASE / BLOOD UREA NITROGEN / CARBON DIOXIDE / CHLORIDE / CREATINE PHOSPHOKINASE / CREATININE / GLUCOSE / LACTATE DEHYDROGENASE / LIPASE / PHOSPHORUS / POTASSIUM / SODIUM / TOTAL BILIRUBIN / TOTAL PROTEIN: tissue Plasma", "data": [{"smiles": "CC1=C(C(=O)O)N2C(=O)[C@@H](NC(=O)[C@H](N)c3ccccc3)[C@H]2SC1", "note": "[CEPHALEXIN ANHYDROUS]", "values": [{"measurement": "ABSOLUTE BASOPHIL", "setting": "72 h, time 3 day", "value": 0, "unit": "CELLS/uL"}, {"measurement": "ABSOLUTE EOSINOPHIL", "setting": "72 h, time 3 day", "value": 47.67, "unit": "CELLS/uL"}, {"measurement": "ABSOLUTE LYMPHOCYTE", "setting": "72 h, time 3 day", "value": 14295, "unit": "CELLS/uL"}, {"measurement": "ABSOLUTE MONOCYTE", "setting": "72 h, time 3 day", "value": 55, "unit": "CELLS/uL"}, {"measurement": "ABSOLUTE SEGMENTED NEUTROPHIL", "setting": "72 h, time 3 day", "value": 435.67, "unit": "CELLS/uL"}, {"measurement": "BASOPHIL", "setting": "72 h, time 3 day", "value": 0, "unit": "%"}, {"measurement": "EOSINOPHIL", "setting": "72 h, time 3 day", "value": 0.33, "unit": "%"}, {"measurement": "ERYTHROCYTE COUNT", "setting": "72 h, time 3 day", "value": 5.55, "unit": "x10E6/uL"}, {"measurement": "HEMATOCRIT", "setting": "72 h, time 3 day", "value": 35.7, "unit": "%"}, {"measurement": "HEMOGLOBIN", "setting": "72 h, time 3 day", "value": 14, "unit": "G/DL"}, {"measurement": "LEUKOCYTE COUNT", "setting": "72 h, time 3 day", "value": 14.83, "unit": "x10E3/uL"}, {"measurement": "LYMPHOCYTE", "setting": "72 h, time 3 day", "value": 96.33, "unit": "%"}, {"measurement": "MEAN CORPUSCULAR HEMOGLOBIN", "setting": "72 h, time 3 day", "value": 25.23, "unit": "pg"}, {"measurement": "MEAN CORPUSCULAR HEMOGLOBIN CONCENTRATION", "setting": "72 h, time 3 day", "value": 39.2, "unit": "G/DL"}, {"measurement": "MEAN CORPUSCULAR VOLUME", "setting": "72 h, time 3 day", "value": 64.3, "unit": "fL"}, {"measurement": "MONOCYTE", "setting": "72 h, time 3 day", "value": 0.33, "unit": "%"}, {"measurement": "NEUTROPHIL", "setting": "72 h, time 3 day", "value": 3, "unit": "%"}, {"measurement": "NUCLEATED RED BLOOD CELLS", "setting": "72 h, time 3 day", "value": "0 /100WBC"}, {"measurement": "PLATELET COUNT", "setting": "72 h, time 3 day", "value": 1231, "unit": "x10E3/uL"}, {"measurement": "ALANINE AMINOTRANSFERASE", "setting": "72 h, time 3 day", "value": 67.33, "unit": "u/L"}, {"measurement": "ALBUMIN", "setting": "72 h, time 3 day", "value": 3.93, "unit": "G/DL"}, {"measurement": "ASPARTATE AMINOTRANSFERASE", "setting": "72 h, time 3 day", "value": 82.67, "unit": "u/L"}, {"measurement": "BLOOD UREA NITROGEN", "setting": "72 h, time 3 day", "value": 16, "unit": "mg/dL"}, {"measurement": "CARBON DIOXIDE", "setting": "72 h, time 3 day", "value": 31.67, "unit": "mmol/L"}, {"measurement": "CHLORIDE", "setting": "72 h, time 3 day", "value": 100.33, "unit": "MEQ/L"}, {"measurement": "CREATINE PHOSPHOKINASE", "setting": "72 h, time 3 day", "value": 209, "unit": "u/L"}, {"measurement": "CREATININE", "setting": "72 h, time 3 day", "value": 0.17, "unit": "mg/dL"}, {"measurement": "GLUCOSE", "setting": "72 h, time 3 day", "value": 140, "unit": "mg/dL"}, {"measurement": "LACTATE DEHYDROGENASE", "setting": "72 h, time 3 day", "value": 154.67, "unit": "u/L"}, {"measurement": "LIPASE", "setting": "72 h, time 3 day", "value": 9, "unit": "u/L"}, {"measurement": "PHOSPHORUS", "setting": "72 h, time 3 day", "value": 10.93, "unit": "mg/dL"}, {"measurement": "POTASSIUM", "setting": "72 h, time 3 day", "value": 6.36, "unit": "MEQ/L"}, {"measurement": "SODIUM", "setting": "72 h, time 3 day", "value": 145.43, "unit": "MEQ/L"}, {"measurement": "TOTAL BILIRUBIN", "setting": "72 h, time 3 day", "value": 0.2, "unit": "mg/dL"}, {"measurement": "TOTAL PROTEIN", "setting": "72 h, time 3 day", "value": 5.67, "unit": "G/DL"}, {"measurement": "ABSOLUTE BASOPHIL", "setting": "120 h, time 5 day", "value": 0, "unit": "CELLS/uL"}, {"measurement": "ABSOLUTE EOSINOPHIL", "setting": "120 h, time 5 day", "value": 48.67, "unit": "CELLS/uL"}, {"measurement": "ABSOLUTE LYMPHOCYTE", "setting": "120 h, time 5 day", "value": 11635.33, "unit": "CELLS/uL"}, {"measurement": "ABSOLUTE MONOCYTE", "setting": "120 h, time 5 day", "value": 0, "unit": "CELLS/uL"}, {"measurement": "ABSOLUTE SEGMENTED NEUTROPHIL", "setting": "120 h, time 5 day", "value": 2649.33, "unit": "CELLS/uL"}, {"measurement": "BASOPHIL", "setting": "120 h, time 5 day", "value": 0, "unit": "%"}, {"measurement": "EOSINOPHIL", "setting": "120 h, time 5 day", "value": 0.33, "unit": "%"}, {"measurement": "ERYTHROCYTE COUNT", "setting": "120 h, time 5 day", "value": 5.85, "unit": "x10E6/uL"}, {"measurement": "HEMATOCRIT", "setting": "120 h, time 5 day", "value": 35.6, "unit": "%"}, {"measurement": "HEMOGLOBIN", "setting": "120 h, time 5 day", "value": 13.87, "unit": "G/DL"}, {"measurement": "LEUKOCYTE COUNT", "setting": "120 h, time 5 day", "value": 14.33, "unit": "x10E3/uL"}, {"measurement": "LYMPHOCYTE", "setting": "120 h, time 5 day", "value": 81.67, "unit": "%"}, {"measurement": "MEAN CORPUSCULAR HEMOGLOBIN", "setting": "120 h, time 5 day", "value": 23.8, "unit": "pg"}, {"measurement": "MEAN CORPUSCULAR HEMOGLOBIN CONCENTRATION", "setting": "120 h, time 5 day", "value": 38.93, "unit": "G/DL"}, {"measurement": "MEAN CORPUSCULAR VOLUME", "setting": "120 h, time 5 day", "value": 61.07, "unit": "fL"}, {"measurement": "MONOCYTE", "setting": "120 h, time 5 day", "value": 0, "unit": "%"}, {"measurement": "NEUTROPHIL", "setting": "120 h, time 5 day", "value": 18, "unit": "%"}, {"measurement": "NUCLEATED RED BLOOD CELLS", "setting": "120 h, time 5 day", "value": "0 /100WBC"}, {"measurement": "PLATELET COUNT", "setting": "120 h, time 5 day", "value": 1275.33, "unit": "x10E3/uL"}, {"measurement": "ALANINE AMINOTRANSFERASE", "setting": "120 h, time 5 day", "value": 101.33, "unit": "u/L"}, {"measurement": "ALBUMIN", "setting": "120 h, time 5 day", "value": 4.23, "unit": "G/DL"}, {"measurement": "ASPARTATE AMINOTRANSFERASE", "setting": "120 h, time 5 day", "value": 94.67, "unit": "u/L"}, {"measurement": "BLOOD UREA NITROGEN", "setting": "120 h, time 5 day", "value": 18.33, "unit": "mg/dL"}, {"measurement": "CARBON DIOXIDE", "setting": "120 h, time 5 day", "value": 28, "unit": "mmol/L"}, {"measurement": "CHLORIDE", "setting": "120 h, time 5 day", "value": 105.33, "unit": "MEQ/L"}, {"measurement": "CREATINE PHOSPHOKINASE", "setting": "120 h, time 5 day", "value": 302, "unit": "u/L"}, {"measurement": "CREATININE", "setting": "120 h, time 5 day", "value": 0.24, "unit": "mg/dL"}, {"measurement": "GLUCOSE", "setting": "120 h, time 5 day", "value": 174.67, "unit": "mg/dL"}, {"measurement": "LACTATE DEHYDROGENASE", "setting": "120 h, time 5 day", "value": 98.67, "unit": "u/L"}, {"measurement": "LIPASE", "setting": "120 h, time 5 day", "value": 9.67, "unit": "u/L"}, {"measurement": "PHOSPHORUS", "setting": "120 h, time 5 day", "value": 11.77, "unit": "mg/dL"}, {"measurement": "POTASSIUM", "setting": "120 h, time 5 day", "value": 5.92, "unit": "MEQ/L"}, {"measurement": "SODIUM", "setting": "120 h, time 5 day", "value": 150.03, "unit": "MEQ/L"}, {"measurement": "TOTAL BILIRUBIN", "setting": "120 h, time 5 day", "value": 0.17, "unit": "mg/dL"}, {"measurement": "TOTAL PROTEIN", "setting": "120 h, time 5 day", "value": 5.97, "unit": "G/DL"}]}]}
